Results reported in EP4545549B1, “INSECT NEUROPEPTIDES” (Solasta Bio Limited, priority 2023, dated 2025).
Like-named read-outs stand apart in the source and are kept apart here. Residues, ends and D or L forms follow the SMILES beside them.

What was measured:
[1] = system: Amrasca biguttula (leaf hopper); settings: unformulated SB-P-46; 3 and 7 days after application; Figure 16
Source text: (§1) The data has been processed in the ARM Field Trials software under license.

[2] = system: Aphis fabae; settings: unformulated SB-P-46; for reduction in naturally infested Aphis fabae numbers as a percentage of untreated control crop: vining peas
Source text: as §1

[3] = system: Aphis gossypii; settings: Greece; cotton; unformulated SB-P-46; counted 3 days following application; Figure 14
Source text: as §1
AgriScience conducted a field trial in Greece, investigating the efficacy of insecticidal peptides on aphids on cotton crop.

[4] = system: Bumblebee; assay: Bee oral toxicity test (adapted from OECD Test No. 247: Bumblebee, Acute Oral Toxicity Test); format: in vivo; settings: after 96 hours of application; compared with sucrose or vehicle and Imidacloprid; Figure 10
Method: Bee oral testing protocol was carried out adapted from OECD Test No. 247: Bumblebee, Acute Oral Toxicity Test. The toxicity of SB-P-46 was compared with a negative control of sucrose or vehicle, and with a current commercial insecticide Imidacloprid.

[5] = system: Myzus persicae; settings: unformulated SB-P-46; leaf dip; mortality assessed at 72, 96 and 120 hours; compared to vehicle and Spirotetramat; Figures 6 and 7
Method: The assay was carried out based on IRAC susceptibility test method 019 (https://irac-online.org/methods/aphids-adultnymphs/).
Dip a 2.5 cm leaf disc into 3 ml of treatment solution allowing the treatment to coat the leaf. Leave the disc to dry for 1 hour and place onto the set agar. Place insects (aphids) onto each of the leaf discs. Each unit is sealed with a close-fitting, ventilated lid. Place the agar dishes in a small plastic tray lined with moist tissue paper and ensure the water trays in the bottom of the incubator are filled with clean water and place within the incubator. An assessment of mortality is made at 72, 96 and 120 hours. Leaf dip assays were performed with unformulated SB-P-46, and compared to a negative control vehicle and a current commercial insecticide Spirotetramat.

SMILES: CC(C)C[C@H](NC(=O)[C@H](CCCNC(=N)N)NC(=O)[C@@H]1CCCN1C(=O)[C@H](CO)NC(=O)[C@H](Cc1ccccc1)NC(=O)[C@@H]1CCCN1C(=O)[C@@H]1CCCN1C(=O)[C@H](CO)NC(=O)[C@H](Cc1ccc(O)cc1)NC(=O)[C@@H]1CCCN1C(=O)[C@@H]1CCCN1C(=O)[C@@H](N)CO)C(N)=O [SB-P-46, [Hy]-SPPYSPPFSPRL-[NH2]] (H-SPPYSPPFSPRL-NH2)
- activity against naturally infested Amrasca biguttula (leaf hopper) in field trials [1]: acted comparably to Flipper insecticide
- reduction in naturally infested Aphis fabae numbers as a percentage of untreated control crop ([2]; Wigtoft location, counted 4 days following application, Figure 12): similarly efficacious activity
- reduction in naturally infested Aphis fabae numbers as a percentage of untreated control crop ([2]; field trial 1, Chatteris location, counted 14 days following application, Figure 11): performed comparably to the conventional insecticides Stealth and Teppeki (sprayed as Treatment 1), followed by Aphox (sprayed as Treatment 2)
- reduction in naturally infested Aphis fabae numbers as a percentage of untreated control crop ([2]; third trial (slot trial), Holbeach location, counted 7 days following application, low aphid infestation, Figure 13): performed as efficaciously as the conventional pesticides tested
- activity against naturally infested Aphis fabae in field trials ([2]; 4 and 8 days after application, Figure 15): acted comparably to Hallmark Zeon insecticide
- reduction in naturally infested Aphis gossypii numbers as a percentage of untreated control crop [3]: performing with close efficacy to the conventional pesticide equivalent tested
- bee oral toxicity (% survival) [4]: far lower toxicity to key pollinator species such as bees compared to broad spectrum chemical insecticides such as Imidacloprid
- activity against Myzus persicae [5]: good activity
